# Target: T1, TANK-2 enzyme (Homo sapiens, UniProt Q9H2K2)
# T1 construct: made in house
# T1 sequence (Q9H2K2 1-1166): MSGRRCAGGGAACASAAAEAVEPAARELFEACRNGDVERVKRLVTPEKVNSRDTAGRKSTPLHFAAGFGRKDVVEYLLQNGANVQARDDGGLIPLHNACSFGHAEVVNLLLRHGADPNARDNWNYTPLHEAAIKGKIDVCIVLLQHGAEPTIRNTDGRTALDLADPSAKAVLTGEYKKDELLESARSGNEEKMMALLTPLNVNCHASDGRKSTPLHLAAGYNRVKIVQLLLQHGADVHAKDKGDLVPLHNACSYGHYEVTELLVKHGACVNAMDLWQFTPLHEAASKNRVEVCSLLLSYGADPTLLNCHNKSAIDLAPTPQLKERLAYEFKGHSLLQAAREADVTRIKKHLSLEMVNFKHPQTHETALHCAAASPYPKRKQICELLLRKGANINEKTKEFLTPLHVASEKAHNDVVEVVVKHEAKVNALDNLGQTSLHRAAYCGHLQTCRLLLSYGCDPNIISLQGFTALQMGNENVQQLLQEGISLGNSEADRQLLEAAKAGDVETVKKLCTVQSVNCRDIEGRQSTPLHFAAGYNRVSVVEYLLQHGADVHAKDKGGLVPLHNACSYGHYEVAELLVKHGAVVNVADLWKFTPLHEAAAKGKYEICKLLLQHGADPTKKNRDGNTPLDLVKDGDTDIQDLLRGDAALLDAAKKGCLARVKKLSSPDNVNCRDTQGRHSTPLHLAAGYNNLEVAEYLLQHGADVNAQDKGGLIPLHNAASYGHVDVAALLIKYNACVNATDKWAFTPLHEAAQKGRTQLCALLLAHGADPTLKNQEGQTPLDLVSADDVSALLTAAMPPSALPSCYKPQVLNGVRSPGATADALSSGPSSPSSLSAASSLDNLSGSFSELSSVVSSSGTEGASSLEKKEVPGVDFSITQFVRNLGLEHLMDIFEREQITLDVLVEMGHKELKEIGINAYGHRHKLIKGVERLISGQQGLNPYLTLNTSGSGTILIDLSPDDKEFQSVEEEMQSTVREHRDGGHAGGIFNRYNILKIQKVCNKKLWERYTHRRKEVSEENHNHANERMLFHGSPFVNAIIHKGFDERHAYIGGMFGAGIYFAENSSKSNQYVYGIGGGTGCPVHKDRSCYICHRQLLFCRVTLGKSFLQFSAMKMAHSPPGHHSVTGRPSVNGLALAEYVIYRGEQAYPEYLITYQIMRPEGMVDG
# Assay: In vitro Scintillation Proximity Assay (SPA) for TANK-2 inhibitory activity
# Format: biochemical
# Details: in vitro SPA assay TANK-2 pIC50
# How it was run: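 Results are pIC50 values, with IC50 interpolated linearly around 50% of blank-subtracted control cpm. They come from a scintillation proximity read of TANK-2 (8 μg/ml) self-modification with [3H]-NAD+/NAD, incubated 120 min at room temperature in pH 7.4 Tris buffer containing MgCl2 and DTT. Compounds were first screened at 10^−5 M.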
row,Compound,IC50 [nM]
1,"CCc1cc2ccc(C(C)(C#N)Cc3nc(C#N)cc(OC)n3)cc2[nH]c1=O (single isomer, unassigned) [Compound 204]",158

# Same assay, conditions: read-out: in vitro SPA assay TANK-2 pIC50 (converted)
row,Compound,IC50 [nM]
1,"CCc1cc2c(OC)cc(C(C)(C#N)Cc3nc(OC)cc(OC)n3)cc2[nH]c1=O (single isomer, unassigned) [Compound 230]",20
2,"CCc1cc2ccc([C@@](C)(C#N)CCOc3ccc(C#N)cc3)cc2[nH]c1=O (single isomer, unassigned) [Compound 273]",100
3,"CCc1cc2ccc([C@](C)(C#N)CCOc3ccc(C#N)cc3)cc2[nH]c1=O (single isomer, unassigned) [Compound 275]",63.1
4,"CCc1cc2ccc([C@](C)(C#N)Cc3cccc(/C=C/S(C)(=O)=O)c3)cc2[nH]c1=O (single isomer, unassigned) [Compound 291]",126
5,"CCc1cc2ccc([C@@](C)(C#N)Cc3cccc(C#CCO)c3)cc2[nH]c1=O (single isomer, unassigned) [Compound 295]",126
6,"CCc1cc2ccc([C@](C)(C#N)Cc3cccc(C#CCO)c3)cc2[nH]c1=O (single isomer, unassigned) [Compound 296]",200
7,"CCc1cc2ccc([C@@](C)(C#N)Cc3cc(OC)nc(C)n3)cc2[nH]c1=O (single isomer, unassigned) [Compound 361]",50.1
8,"CCc1cc2ccc([C@](C)(C#N)Cc3cc(OC)nc(C)n3)cc2[nH]c1=O (single isomer, unassigned) [Compound 362]",126
9,"Cc1cc2ccc([C@@](C)(C#N)C3CCc4ccccc43)cc2[nH]c1=O (single isomer, unassigned) [Compound 385]",2000
10,"Cc1cc2ccc([C@](C)(C#N)C3CCc4ccccc43)cc2[nH]c1=O (single isomer, unassigned) [Compound 386]",1260
11,CCc1cc2ccc(C(C)(C#N)Cc3cccc(OCCCN4CCNCC4)c3)cc2[nH]c1=O (centres unmarked) [Compound 25],50.1
12,CCc1cc2ccc(C(C#N)(Cc3ccccc3)c3ccc(C#N)cc3)cc2[nH]c1=O (centres unmarked) [Compound 26],251
13,CCc1cc2ccc(C(C#N)(Cc3ccccc3)c3ccccc3)cc2[nH]c1=O (centres unmarked) [Compound 27],631
14,CCc1cc2ccc(C(C#N)(Cc3ccccc3)C3CC3)cc2[nH]c1=O (centres unmarked) [Compound 29],31.6
15,CCc1cc2ccc(C(C#N)(Cc3ccccc3)C(C)C)cc2[nH]c1=O (centres unmarked) [Compound 30],794
16,CCCC(C#N)(Cc1ccccc1)c1ccc2cc(CC)c(=O)[nH]c2c1 (centres unmarked) [Compound 31],251
17,CCc1cc2ccc(C(C)(C#N)Cc3cc(OC)ccc3F)cc2[nH]c1=O (centres unmarked) [Compound 171],200
18,CCc1cc2ccc(C(C)(C#N)Cc3cccc(-c4ccc[nH]4)c3)cc2[nH]c1=O (centres unmarked) [Compound 176],158
19,CCc1cc2ccc(C(C)(C#N)Cc3cccc(CCS(C)(=O)=O)c3)cc2[nH]c1=O (centres unmarked) [Compound 178],200
20,Cc1cc2ccc(C(C)(C#N)Cc3cccc(C=Cc4ccccc4)c3)cc2[nH]c1=O (centres unmarked) [Compound 179],2510
21,CCc1cc2ccc(C(C)(C#N)Cc3cccc(/C=N/OC)c3)cc2[nH]c1=O (centres unmarked) [Compound 185],158

row,Compound,IC50 [nM]
1,CCc1cc2ccc(C(C)(C#N)Cc3cccc(C(=N)NO)c3)cc2[nH]c1=O (centres unmarked) [Compound 186],79.4
2,CCc1cc2ccc(C(C)(C#N)Cc3cccc(OCCCC#N)c3)cc2[nH]c1=O (centres unmarked) [Compound 194],126
3,CCc1cc2ccc(C(C)(C#N)Cc3cccc(OCCC#N)c3)cc2[nH]c1=O (centres unmarked) [Compound 195],398
4,C#CCOc1cccc(CC(C)(C#N)c2ccc3cc(CC)c(=O)[nH]c3c2)c1 (centres unmarked) [Compound 196],316
5,CCc1cc2ccc(C(C)(C#N)COCc3ccccc3)cc2[nH]c1=O (centres unmarked) [Compound 197],63.1
6,CCc1cc2ccc(C(C)(C#N)Cc3cccc(OCCS(C)(=O)=O)c3)cc2[nH]c1=O (centres unmarked) [Compound 201],200
7,CCc1cc2ccc(C(C)(C#N)Cc3nc(Cl)cc(OC)n3)cc2[nH]c1=O (centres unmarked) [Compound 202],251
8,CCc1cc2ccc(C(C)(C#N)Cc3nc(N(C)C)cc(N(C)C)n3)cc2[nH]c1=O (centres unmarked) [Compound 205],200
9,CCc1cc2ccc(C(C)(C#N)Cc3cccc(N4CCC(N(C)C)C4)n3)cc2[nH]c1=O (centres unmarked) [Compound 209],501
10,CCc1cc2ccc(C(C)(C#N)Cc3cccc(C#Cc4cncn4C)n3)cc2[nH]c1=O (centres unmarked) [Compound 217],158
11,CCc1cc2ccc(C(C)(C#N)Cc3cccc(N(C)CCc4ccccc4)n3)cc2[nH]c1=O.Cl (centres unmarked) [Compound 220],1000
12,CCc1cc2ccc(C(C)(C#N)Cc3cccc(C#N)[n+]3[O-])cc2[nH]c1=O (centres unmarked) [Compound 228],15.8
13,CCc1cc2c(OC)cc(C(C)(C#N)Cc3nc(OC)cc(OC)n3)cc2[nH]c1=O (centres unmarked) [Compound 229],10
14,CCc1cc2ccc(C(C)(C#N)CN3CCN(c4ccccn4)CC3)cc2[nH]c1=O (centres unmarked) [Compound 233],158
15,Cc1nc(-c2ccccc2)sc1CC(C)(C#N)c1ccc2cc(C)c(=O)[nH]c2c1 (centres unmarked) [Compound 235],1000
16,CCc1cc2ccc(C(C)(C#N)Cc3cccc4c3CCN4)cc2[nH]c1=O (centres unmarked) [Compound 237],126
17,CCc1cc2ccc(C(C)(C#N)Cc3cccc(C(=O)OC(C)C)c3)cc2[nH]c1=O (centres unmarked) [Compound 255],794
18,Cc1cc2ccc(C(C)(C#N)Cc3cccc(I)c3)cc2[nH]c1=O (centres unmarked) [Compound 256],1260
19,CCc1cc2ccc(C(C)(C#N)Cc3cccc(NC)c3)cc2[nH]c1=O (centres unmarked) [Compound 257],251
20,CCc1cc2ccc(C(C)(C#N)Cc3cc(Br)cc(N(C)C)c3)cc2[nH]c1=O (centres unmarked) [Compound 260],251
21,Cc1cc2ccc(C(C)(C#N)Cc3cccc(OCC4CCOCC4)c3)cc2[nH]c1=O (centres unmarked) [Compound 261],2510

row,Compound,IC50 [nM]
1,CCc1cc2ccc(C(C)(C#N)Cc3cc(F)ccc3F)cc2[nH]c1=O (centres unmarked) [Compound 280],126
2,CCc1cc2ccc(C(C)(C#N)Cc3ccc(F)c(F)c3)cc2[nH]c1=O (centres unmarked) [Compound 281],158
3,CCc1cc2ccc(C(C)(C#N)Cc3cc(C(F)(F)F)ccc3F)cc2[nH]c1=O (centres unmarked) [Compound 283],398
4,CCOc1cccc(CC(C)(C#N)c2ccc3cc(CC)c(=O)[nH]c3c2)c1 (centres unmarked) [Compound 285],251
5,CCc1cc2ccc(C(C)(C#N)Cc3cccc(OC)c3F)cc2[nH]c1=O (centres unmarked) [Compound 286],200
6,CCc1cc2ccc(C(C)(C#N)Cc3cc(C(C)C)ccc3OC)cc2[nH]c1=O (centres unmarked) [Compound 288],1000
7,CCc1cc2ccc(C(C)(C#N)Cc3cc(OC)c(OC)c(OC)c3)cc2[nH]c1=O (centres unmarked) [Compound 289],251
8,CCc1cc2ccc(C(C)(C#N)Cc3cccc(/C=N/O)c3)cc2[nH]c1=O (centres unmarked) [Compound 299],158
9,CCc1cc2ccc(C(C)(C#N)CN(C)Cc3ccc(C#N)cc3)cc2[nH]c1=O (centres unmarked) [Compound 300],398
10,CCc1cc2ccc(C(C)(C#N)CNCc3ccc(C#N)cc3)cc2[nH]c1=O (centres unmarked) [Compound 302],100
11,Cc1cc2ccc(C(C)(C#N)Cc3cccc(Oc4ccccc4)c3)cc2[nH]c1=O (centres unmarked) [Compound 305],1580
12,CCc1cc2ccc(C(C)(C#N)Cc3nc(C#N)cc(OC)n3)cc2[nH]c1=O (centres unmarked) [Compound 313],100
13,CCc1cc2ccc(C(C)(C#N)Cc3cc(C#N)nc(OC)c3)cc2[nH]c1=O (centres unmarked) [Compound 314],25.1
14,CCc1cc2ccc(C(C)(C#N)Cc3cc(N(C)C)nc(C#N)n3)cc2[nH]c1=O (centres unmarked) [Compound 317],100
15,CCc1cc2ccc(C(C)(C#N)Cc3nc(C#N)cc(N(C)C)n3)cc2[nH]c1=O (centres unmarked) [Compound 318],126
16,CCc1cc2ccc(C(C)(C#N)Cc3cc(C#N)nc(C)n3)cc2[nH]c1=O (centres unmarked) [Compound 319],63.1
17,CCc1cc2ccc(C(C)(C#N)Cc3cc(N(C)C)nc(N(C)C)n3)cc2[nH]c1=O (centres unmarked) [Compound 320],200
18,CCc1cc2ccc(C(C)(C#N)Cc3cc(N(C)C)nc(C)n3)cc2[nH]c1=O (centres unmarked) [Compound 322],251
19,CCc1cc2ccc(C(C)(C#N)Cc3cc(Cl)nc(N(C)C)c3)cc2[nH]c1=O (centres unmarked) [Compound 323],251

# Source: US8778966B2, “Quinolinone derivatives as PARP and tank inhibitors” (Janssen Pharmaceutica, NV, priority 2007, dated 2014)
